Reference: patent US20190048342A1, “CROSS-REGULATION OF TYPE I INTERFERON SIGNALING PATHWAYS” (THE METHODIST HOSPITAL SYSTEM, priority 2016, published 2019)

Columns and labels:
RNA polymerase III = assay: IFN-β mRNA in RAW264.7 cells after P. yoelii YM gDNA stimulation, with RNA polymerase III knockdown or inhibition; type: cell-based; conditions: siRNA 48 h or ML60218 pretreatment 24 h, then P. yoelii YM gDNA stimulation 6 h
Excerpt: FIGS. 10A to 10G show type I IFN gene expression after P. yoelii YM gDNA or RNA stimulation and WT mice serum cytokine level after P. yoelii YM infection. […] Data are plotted as the mean±s.d. and are representative of three independent experiments. *P<0.05, **P<0.01, ***P<0.001 vs. corresponding control. ND, not detected; NS, not significant.
To understand the molecular mechanisms by which mice deficient in the cGAS, Sting, Mda5, or Mavs gene were resistant to P. yoelii YM infection, experiments were conducted to determine whether cGAS and MDA5 function as DNA/RNA sensors for detecting P. yoelii YM gDNAs or RNAs (FIG. 2a). Both purified P. yoelii YM gDNA and RNA could induce IFN-β mRNA expression in RAW264.7 cells (FIG. 2b). The ability of P. yoelii YM gDNA to induce type I IFN response was completely abolished upon DNase, but not RNase, treatment (FIG. 10a). Similarly, the stimulating activity of parasite RNA was abolished after treatment with RNase, but not DNase (FIG. 10a), which is in agreement with other studies showing that malaria RNA can be detected by MDA5 sensor (Liehl, P. et al. Nat Med 20:47-53 (2014); Wu, J. et al. Proc Natl Acad Sci USA 111:E511-520 (2014)). […]

P. yoelii YM [1] = assay: Serum cytokine levels (ELISA) in mice after P. yoelii YM infection; type: in vivo, mouse
Protocol: (§1) The parasite Plasmodium yoelii YM, N67C and N67 have been previously described (Li, J. et al. Proc Natl Acad Sci USA 108:E374-382 (2011)). For plasmodium infection, 0.2 (low) or 2×10^6 iRBCs (otherwise, indicated specifically in the figure legend) suspended in 200 μl PBS from the donor mice were intraperitoneally injected into experimental mice. A higher parasite dose (1×10^7 iRBCs) was used in some experiments. Parasitemias were monitored daily by examination of Giemsa-stained thin tail blood smears. Female mice C57BL/6 (WT), Mavs^−/−, Mda5^−/−, Myd88^−/−, Sting^−/−, Trif^−/−, BDCA2-DTR, Tlr2^−/−, Tlr3^−/−, and Tlr4^−/− mice were purchased from The Jackson Laboratory. Tlr9^−/− mice, Tlr7^−/−, Rig-I^−/− mice, Irf3^−/−:Irf7^−/− mice, and cGAS^−/− mice were obtained. All mouse-related procedures were performed according to experimental protocols approved by the Animal Care and Welfare Committee at Houston Methodist Research Institute and in accordance with NIH-approved animal study protocol LMVR-11E.
(§2) To deplete pDCs, pDC-depleting functional-grade mAb (anti-mPDCA-1 IgG, clone JF05-1C2.4.1) and the corresponding isotype control IgG, which served as control, were purchased from Miltenyi Biotec (Auburn, Calif.). Two intraperitoneal injections of antibody (250 μg/mouse) per mouse were administered 12 h prior and after YM infection.
Mouse splenocytes were prepared from spleens cut into small fragments and digested with collagenase D (1 mg/ml, Sigma) and DNAse I (20 μg/ml, Sigma) in RPMI-1640 medium for 30 min. […] Cells were analyzed using the BD FACS Aria II. […]
In Vivo Ready siRNAs were mixed with Invivofectamine 3.0 liposomes (Invitrogen) following the manufacturer's instructions and injected intravenously in a volume of 100 μl at a dose of 5 mg/kg. […]
The parasite Plasmodium yoelii YM and Plasmodium yoelii N67C have been previously described (Wu, J. et al. Proc Natl Acad Sci USA 111:E511-520 (2014); Li, J. et al. Proc Natl Acad Sci USA 108:E374-382 (2011)). […] Parasitemias were monitored daily by examination of Giemsa-stained thin tail blood smears. […]

P. yoelii YM [2] = assay: Daily parasitemia and mortality of mice after P. yoelii YM infection; type: in vivo, mouse
Protocol: as §1, §2
In Vivo Ready siRNAs were mixed with Invivofectamine 3.0 liposomes (Invitrogen) following the manufacturer's instructions and injected intravenously in a volume of 100 μl at a dose of 5 mg/kg. Mice were infected with P. yoelii YM (0.5×10^6 iRBCs) 48 h after siRNA treatment.
Deficient (Mda5^−/−, Mavs^−/−, and Sting^−/−) mice were crossed with BDCA2-DTR transgenic mice and treated with diphtheria toxin (DT, Sigma-Aldrich) intraperitoneally (i.p.) at a dose of 100-120 ng/mouse. pDCs were depleted by DT injection at 1 day before and 1, 3, and 5 days after P. yoelii YM infection.
The parasite Plasmodium yoelii YM and Plasmodium yoelii N67C have been previously described (Wu, J. et al. Proc Natl Acad Sci USA 111:E511-520 (2014); Li, J. et al. Proc Natl Acad Sci USA 108:E374-382 (2011)). For plasmodium infection, 0.2 (low) or 2×10^6 iRBCs (otherwise, indicated specifically in the figure legend) suspended in 200 μl PBS from the donor mice were intraperitoneally injected into experimental mice. Parasitemias were monitored daily by examination of Giemsa-stained thin tail blood smears. Female mice C57BL/6 (WT), Mavs^−/−, Mda5^−/−, Sting^−/−, BDCA2-DTR, zDC-DTR, Ifnar^−/−, and Rag2^−/− mice were purchased from The Jackson Laboratory. All mouse-related procedures were performed according to experimental protocols approved by the Animal Care and Welfare Committee at Houston Methodist Research Institute and in accordance with NIH-approved animal study protocol LMVR-11E.
To block type I IFN receptor, anti-mouse interferon α/β receptor antibodies (Leinco Technologies), in the amount of 500 μg in PBS at day 0, 2, 4, and 250 μg at day 6 after infection (or indicated specifically in the figure legend), were intraperitoneally injected into WT and deficient mice. Mouse IgG antibody was used as control, and parasitemias were monitored by daily Giemsa-stained blood smears. To test the role of type I IFN cytokines, C57BL/6 mice were first infected with P. yoelii YM, and then intravenously injected with 800 U/g mouse recombinant IFN-α and IFN-β, recombinant IL-6, or recombinant IFN-γ at the indicated time points. Bovine serum albumin (BSA, 0.1%) in PBS served as a control, and parasitemias were monitored by daily Giemsa-stained blood smears. To deplete pDCs, pDC-depleting functional-grade mAb (anti-mPDCA-1 IgG, clone JF05-1C2.4.1) was purchased from Miltenyi Biotec (Auburn, Calif.), and the corresponding isotype control IgG served as control. Two intraperitoneally injections of antibody (250 μg/mouse) per mouse were administered 12 h prior and after plasmodium YM infection or indicated specifically in the figure legend. […]

P. berghei ANKA = conditions: previous studies; cited from earlier work
[3] = Sting-/- mice, macrophage depletion at one day post infection, vs liposome control or treatment two days before
[4] = Mavs-/-:zDC-DTR mice, DT after 24 h of infection, vs untreated or DT four days before
[5] = WT mice, recombinant cytokine i.v. at 18 h post YM infection

Cc1c(-c2cc(NS(=O)(=O)c3ccccc3Cl)n(C)n2)sc2ccc(Cl)cc12 [ML60218]
IFN-β mRNA expression (RNA polymerase III): markedly inhibited

O=P(O)(O)C(Cl)(Cl)P(=O)(O)O [clodronate]
serum levels of IFN-α and IFN-β (P. yoelii YM [1]; Sting-/- mice, macrophage depletion two days before or one day after YM infection): did not affect
host mortality (P. yoelii YM [2]; [3]): markedly increased parasitemia and host mortality
parasitemia (P. yoelii YM [2]; [3]): markedly increased parasitemia and host mortality

diphtheria toxin [DT]
serum IFN-α and IFN-β (P. yoelii YM [1]; Mavs-/-:BDCA2-DTR mice treated with DT vs Mavs-/- mice treated with DT, 24 h after infection): markedly reduced
serum levels of IFN-α and IFN-β (P. yoelii YM [1]; Mavs-/-:zDC-DTR chimeric mice, DT four days before or one day post infection): no change
sensitivity to P. yoelii YM infection based on parasitemia and survival (P. yoelii YM [2]; DT-treated Mavs-/-:BDCA2-DTR mice vs DT-treated Mavs-/- mice): sensitive to P. yoelii YM infection
parasitemia (P. yoelii YM [2]; [4]): increased parasitemia
time of death (P. yoelii YM [2]; [4]): died sooner

murine IFN-β: murine IFN-β of previous studies
protection of mice from ANKA infection (P. berghei ANKA): protect

B1: IFN-γ: recombinant IFN-γ injected intravenously (protein, UniProt P01580 23-155, looked up)
Interferon gamma: HGTVIESLESLNNYFNSSGIDVEEKSLFLDIWRNWQKDGDMKILQSQIISFYLRLFEVLKDNQAISNNISVIESHLITTFFSNSKAKKDAFMSIAKFEVNNPQVQRQAFNELIRVVHQLLPESSLRKRKRSRC
host mortality (P. yoelii YM [2]; [5]): failed to do so
parasitemia (P. yoelii YM [2]; [5]): slightly increased

B2: IL-6: recombinant IL-6 injected intravenously (protein, UniProt P08505 25-211, looked up)
Interleukin-6: FPTSQVRRGDFTEDTTPNRPVYTTSQVGGLITHVLWEIVEMRKELCNGNSDCMNNDDALAENNLKLPEIQRNDGCYQTGYNQEICLLKISSGLLEYHSYLEYMKNNLKDNKKDKARVLQRDTETLIHIFNQEVKDLHKIVLPTPISNALLTDKLESQKEWLRTKTIQFILKSLEEFLKVTLRSTRQT
host mortality (P. yoelii YM [2]; [5]): failed to do so
parasitemia (P. yoelii YM [2]; [5]): failed to do so
